Source: patent publication US20250313546A1, “NUCLEIC ACID BINDERS” (UNIVERSITY OF STRATHCLYDE, priority 2022, published 2025)
In brackets after ≈: the same amount, converted by molar mass. Where two headings read alike, the source gives them in different places.

Tests used:
[1] = system: Genomic double stranded DNA (salmon); experiment: Fluorescence intercalator displacement (FID) assay, SYBR-safe probe; conditions: 20 μM compound, 30° C., lower % = stronger binding
In short: (§1)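 Compound at 20 μM mixed with 3.76 ng/mL polyAU dsRNA or salmon genomic dsDNA and 12500-fold diluted SybrSafe in 1 mM phosphate buffer pH 7.4, then heated to 30 °C and fluorescence read. Reduction is expressed as normalised %, with nucleic acid plus probe as maximum and probe alone as minimum.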

[2] = system: PolyAU double stranded RNA; experiment: as above; conditions: 20 μM compound, 30° C., lower % = stronger binding
In short: as §1

[3] = system: Aspergillus flavus; experiment: Expanded set of filamentous fungi, MIC broth microdilution (CLSI); format: cell-based; conditions: MIC at 50% inhibition; for MIC50: Aspergillus flavus; for MIC50 Aspergillus flavus: isolate Aflav3
[4] = system: C. albicans; experiment: Expanded set of yeasts, MIC broth microdilution (CLSI); format: cell-based; conditions: MIC at 50% inhibition; for MIC50: Candida albicans; for MIC50 C. albicans: isolate CA90028
[5] = system: Candida glabrata (ACPF3309); conditions: Nakaseomyces glabratus, read-out: MIC99 Candida glabrata
[6] = system: Scedosporium prolificans (F2746); conditions: Lomentospora prolificans, read-out: MIC99 Scedosporium prolificans
Protocol: (§2) The Minimum Inhibitory Concentration (MIC, at 99% inhibition) of the compounds was determined using the broth microdilution method as recommended by EUCAST (EUCAST Definitive Document E.DEF 9.3.2, Method for the determination of broth dilution minimum inhibitory concentrations of antifungal agents for conidia forming moulds and EUCAST Definitive Document E.DEF 7.3.2 Method for the determination of broth dilution minimum inhibitory concentrations of antifungal agents for yeasts).

[7] = system: C. albicans (ATCC 90028); conditions: Candida albicans, ATCC90028, read-out: MIC99 C. albicans
Protocol: as §2

[8] = system: Lomentospora prolificans; experiment: Expanded set of filamentous fungi, MIC broth microdilution (CLSI); format: cell-based; conditions: isolate S2, MIC at 50% inhibition
[9] = system: Paecilomyces variotii; experiment: as above; format: cell-based; conditions: isolate MYA-3630, MIC at 50% inhibition
[10] = system: C. glabrata; experiment: Expanded set of yeasts, MIC broth microdilution (CLSI); format: cell-based; conditions: Nakaseomyces glabratus, MIC at 50% inhibition
[11] = system: Scedosporium spp.; experiment: Expanded set of filamentous fungi, MIC broth microdilution (CLSI); format: cell-based
[12] = system: C. guilliiermondii; experiment: Expanded set of yeasts, MIC broth microdilution (CLSI); format: cell-based; conditions: MIC at 50% inhibition; for MIC50: isolate Cgui1
[13] = system: Candida auris (H.17.157); conditions: Candidozyma auris, read-out: MIC99 Candida auris
Protocol: as §2

[14] = system: Candida parapsilosis; experiment: Expanded set of yeasts, MIC broth microdilution (CLSI); format: cell-based; conditions: MIC at 50% inhibition; for MIC50: Lodderomyces parapsilosis
[15] = system: A. flavus (CBS 128.202); conditions: Aspergillus flavus, CBS128, read-out: MIC99 A. flavus
Protocol: as §2

[16] = system: Fusarium oxysporum (F7098); conditions: read-out: MIC99 Fusarium oxysporum
Protocol: as §2

[17] = system: C. neoformans (F10025); conditions: Cryptococcus neoformans, read-out: MIC99 C. neoformans
[18] = system: Fusarium oxysporum; experiment: Expanded set of filamentous fungi, MIC broth microdilution (CLSI); format: cell-based; conditions: MIC at 50% inhibition; for MIC50: Fusarium oxysporum, isolate F2; for MIC50 Fusarium oxysporum: isolate F3
[19] = system: Rhizopus arrhizus (NEQAS12.35321); conditions: read-out: MIC99 Rhizopus arrhizus
[20] = system: Enterococcus faecalis (ATCC 51299); experiment: Antibacterial MIC, broth microdilution (CLSI); format: cell-based; conditions: Enterococcus faecalis, ATCC51299; read-out: MIC80 E. faecalis
[21] = system: C. auris; experiment: Expanded set of yeasts, MIC broth microdilution (CLSI); format: cell-based; conditions: MIC at 50% inhibition; for MIC50: Candidozyma auris, isolate DI17-47
[22] = system: Escherichia coli (ATCC 25922); experiment: Antibacterial MIC, broth microdilution (CLSI); format: cell-based; conditions: Escherichia coli, ATCC25922; read-out: MIC80 E. coli
[23] = system: C. krusei; experiment: Expanded set of yeasts, MIC broth microdilution (CLSI); format: cell-based; conditions: Pichia kudriavzevii, ATCC6258; isolate ATCC 6258; MIC at 50% inhibition
[24] = ATCC204304, isolate ATCC 204304
[25] = isolate S1, MIC at 50% inhibition
[26] = isolate S3, MIC at 50% inhibition
[27] = ATCC22019, isolate ATCC 22019, read-out: MIC50 Candida parapsilosis
[28] = isolate CP1, read-out: MIC50 C. parapsilosis

SMILES	% Normalised Fluorescence with gDNA [1]	% Normalised Fluorescence with polyAU RNA [2]	MIC50 [3, 24]	MIC50 ([3]; isolate Aflav2)	MIC50 Aspergillus flavus [3]	MIC50 ([4]; isolate CA3)	MIC50 ([4]; isolate SC5314)	MIC50 C. albicans [4]	MIC99 [5]	MIC99 [6]	MIC99 [7]	MIC50 [8]	MIC50 [9]	MIC50 ([10]; isolate 05-62)	MIC50 ([10]; isolate 05-761)	MIC50 ([10]; isolate CG3)	MIC50 [11, 25]	MIC50 [11, 26]	MIC50 [12]	MIC50 C. guilliiermondii ([12]; isolate Cgui2)	further results
C/N=C(\CCNC(=O)c1cc(NC(=O)c2cc(NC(=O)c3ccc(/C=C/c4ccc(N(C)C)cc4)nc3)cn2C)cn1C)NC [Ia8, 6-((E)-4-(dimethylamino)styryl)-N-(1-methyl-5-((1-methyl-5-(((E)-3-(methylamino)-3-(methylimino)propyl)carbamoyl)-1H-pyrrol-3-yl)carbamoyl)-1H-pyrrol-3-yl)nicotinamide]	4%	9%	1 to 8 µg/mL (≈ 1.64 to 13.1 µM)	1 to 8 µg/mL (≈ 1.64 to 13.1 µM)	** (** means 1 μg/mL < MIC50 <= 8 μg/mL)	1 to 8 µg/mL (≈ 1.64 to 13.1 µM)	1 to 8 µg/mL (≈ 1.64 to 13.1 µM)	** (** means 1 μg/mL < MIC50 <= 8 μg/mL)	5 to 25 µg/mL (≈ 8.2 to 41 µM)	5 to 25 µg/mL (≈ 8.2 to 41 µM)	25 to 50 µg/mL (≈ 41 to 82 µM)	1 to 8 µg/mL (≈ 1.64 to 13.1 µM)	1 to 8 µg/mL (≈ 1.64 to 13.1 µM)	1 to 8 µg/mL (≈ 1.64 to 13.1 µM)	1 to 8 µg/mL (≈ 1.64 to 13.1 µM)	1 to 8 µg/mL (≈ 1.64 to 13.1 µM)	1 to 8 µg/mL (≈ 1.64 to 13.1 µM)	1 to 8 µg/mL (≈ 1.64 to 13.1 µM)	1 to 8 µg/mL (≈ 1.64 to 13.1 µM)	** (** means 1 μg/mL < MIC50 <= 8 μg/mL)	MIC50 C. guilliiermondii ([12]; isolate Cgui3): ** (** means 1 μg/mL < MIC50 <= 8 μg/mL); MIC99 [13]: > 50 µg/mL; MIC50 [14, 27]: 1 to 8 µg/mL (≈ 1.64 to 13.1 µM); MIC50 [14, 28]: 1 to 8 µg/mL (≈ 1.64 to 13.1 µM); MIC50 C. parapsilosis ([14]; isolate CP2): ** (** means 1 μg/mL < MIC50 <= 8 μg/mL); MIC50 C. parapsilosis ([14]; isolate CP3): ** (** means 1 μg/mL < MIC50 <= 8 μg/mL); MIC99 [15]: < 5 µg/mL; MIC99 [16]: < 5 µg/mL; MIC99 [17]: 5 to 25 µg/mL (≈ 8.2 to 41 µM); MIC50 [18]: ≤ 1 µg/mL; MIC50 Fusarium oxysporum [18]: *** (*** means MIC50 <= 1 μg/mL); MIC99 [19]: 5 to 25 µg/mL (≈ 8.2 to 41 µM); MIC80 [20]: 25 to 100 µM (≈ 15.2 to 61 µg/mL); MIC50 [21]: 1 to 8 µg/mL (≈ 1.64 to 13.1 µM); MIC50 C. auris ([21]; isolate DI17-46): ** (** means 1 μg/mL < MIC50 <= 8 μg/mL); MIC50 C. auris ([21]; isolate DI17-48): ** (** means 1 μg/mL < MIC50 <= 8 μg/mL); MIC80 [22]: > 100 µM; MIC50 [23]: 1 to 8 µg/mL (≈ 1.64 to 13.1 µM)
[H]/N=C(\CCNC(=O)c1cc(NC(=O)c2cc(NC(=O)c3ccc(C=Cc4ccc(N(C)C)cc4)nc3)cn2C)cn1C)NC [Ia9, (E)-6-(4-(dimethylamino)styryl)-N-(5-((5-((3-imino-3-(methylamino)propyl)carbamoyl)-1-methyl-1H-pyrrol-3-yl)carbamoyl)-1-methyl-1H-pyrrol-3-yl)nicotinamide]	13%	19%	1 to 8 µg/mL (≈ 1.68 to 13.4 µM)	1 to 8 µg/mL (≈ 1.68 to 13.4 µM)	** (** means 1 μg/mL < MIC50 <= 8 μg/mL)	1 to 8 µg/mL (≈ 1.68 to 13.4 µM)	1 to 8 µg/mL (≈ 1.68 to 13.4 µM)	** (** means 1 μg/mL < MIC50 <= 8 μg/mL)	5 to 25 µg/mL (≈ 8.39 to 42 µM)	5 to 25 µg/mL (≈ 8.39 to 42 µM)	5 to 25 µg/mL (≈ 8.39 to 42 µM)	≤ 1 µg/mL	1 to 8 µg/mL (≈ 1.68 to 13.4 µM)	1 to 8 µg/mL (≈ 1.68 to 13.4 µM)	≤ 1 µg/mL	1 to 8 µg/mL (≈ 1.68 to 13.4 µM)	1 to 8 µg/mL (≈ 1.68 to 13.4 µM)	≤ 1 µg/mL	1 to 8 µg/mL (≈ 1.68 to 13.4 µM)	** (** means 1 μg/mL < MIC50 <= 8 μg/mL)	MIC50 C. guilliiermondii ([12]; isolate Cgui3): ** (** means 1 μg/mL < MIC50 <= 8 μg/mL); MIC99 [13]: > 50 µg/mL; MIC50 [14, 27]: 1 to 8 µg/mL (≈ 1.68 to 13.4 µM); MIC50 [14, 28]: 1 to 8 µg/mL (≈ 1.68 to 13.4 µM); MIC50 C. parapsilosis ([14]; isolate CP2): ** (** means 1 μg/mL < MIC50 <= 8 μg/mL); MIC50 C. parapsilosis ([14]; isolate CP3): ** (** means 1 μg/mL < MIC50 <= 8 μg/mL); MIC99 [15]: 5 to 25 µg/mL (≈ 8.39 to 42 µM); MIC99 [16]: < 5 µg/mL; MIC99 [17]: < 5 µg/mL; MIC50 [18]: ≤ 1 µg/mL; MIC50 Fusarium oxysporum [18]: *** (*** means MIC50 <= 1 μg/mL); MIC99 [19]: 5 to 25 µg/mL (≈ 8.39 to 42 µM); MIC80 [20]: 25 to 100 µM (≈ 14.9 to 59.6 µg/mL); MIC50 [21]: 1 to 8 µg/mL (≈ 1.68 to 13.4 µM); MIC50 C. auris ([21]; isolate DI17-46): ** (** means 1 μg/mL < MIC50 <= 8 μg/mL); MIC50 C. auris ([21]; isolate DI17-48): ** (** means 1 μg/mL < MIC50 <= 8 μg/mL); MIC80 [22]: > 100 µM; MIC50 [23]: 1 to 8 µg/mL (≈ 1.68 to 13.4 µM)
C/N=C(/CCNC(=O)c1cc(NC(=O)c2cc(NC(=O)c3ccc(/C=C/c4cnc5ccccc5c4)cc3)cn2C)cn1C)NC [Ia10, 1-methyl-4-(1-methyl-4-(4-((E)-2-(quinolin-3-yl)vinyl)benzamido)-1H-pyrrole-2-carboxamido)-N—((Z)-3-(methylamino)-3-(methylimino)propyl)-1H-pyrrole-2-carboxamide]	8%	17%	≤ 1 µg/mL	≤ 1 µg/mL	*** (*** means MIC50 <= 1 μg/mL)	1 to 8 µg/mL (≈ 1.62 to 13 µM)	1 to 8 µg/mL (≈ 1.62 to 13 µM)	** (** means 1 μg/mL < MIC50 <= 8 μg/mL)	< 5 µg/mL	< 5 µg/mL	5 to 25 µg/mL (≈ 8.11 to 40.5 µM)	≤ 1 µg/mL	1 to 8 µg/mL (≈ 1.62 to 13 µM)	≤ 1 µg/mL	≤ 1 µg/mL	≤ 1 µg/mL	≤ 1 µg/mL	≤ 1 µg/mL	1 to 8 µg/mL (≈ 1.62 to 13 µM)	** (** means 1 μg/mL < MIC50 <= 8 μg/mL)	MIC50 C. guilliiermondii ([12]; isolate Cgui3): ** (** means 1 μg/mL < MIC50 <= 8 μg/mL); MIC99 [13]: 5 to 25 µg/mL (≈ 8.11 to 40.5 µM); MIC50 [14, 27]: 1 to 8 µg/mL (≈ 1.62 to 13 µM); MIC50 [14, 28]: 1 to 8 µg/mL (≈ 1.62 to 13 µM); MIC50 C. parapsilosis ([14]; isolate CP2): ** (** means 1 μg/mL < MIC50 <= 8 μg/mL); MIC50 C. parapsilosis ([14]; isolate CP3): ** (** means 1 μg/mL < MIC50 <= 8 μg/mL); MIC99 [15]: < 5 µg/mL; MIC99 [16]: 5 to 25 µg/mL (≈ 8.11 to 40.5 µM); MIC99 [17]: < 5 µg/mL; MIC50 [18]: ≤ 1 µg/mL; MIC50 Fusarium oxysporum [18]: *** (*** means MIC50 <= 1 μg/mL); MIC99 [19]: 5 to 25 µg/mL (≈ 8.11 to 40.5 µM); MIC80 [20]: < 5 µM; MIC50 [21]: 1 to 8 µg/mL (≈ 1.62 to 13 µM); MIC50 C. auris ([21]; isolate DI17-46): ** (** means 1 μg/mL < MIC50 <= 8 μg/mL); MIC50 C. auris ([21]; isolate DI17-48): ** (** means 1 μg/mL < MIC50 <= 8 μg/mL); MIC80 [22]: > 100 µM; MIC50 [23]: ≤ 1 µg/mL
